According to ChEMBL document CHEMBL3779879, “Structural hybridization of three aminoglycoside antibiotics yields a potent broad-spectrum bactericide that eludes bacterial resistance enzymes” (2016):
Values after ≈ are worked out from the molar mass of the structure shown.

Experiments:
Assay type in all cases: functional
Escherichia coli [1] = assay: Antibacterial activity against Escherichia coli expressing AAC(3)-IV
Escherichia coli [2] = assay: Antibacterial activity against Escherichia coli expressing A-site methyltransferase ArmA
Escherichia coli [3] = assay: Antibacterial activity against Escherichia coli ATCC 25922
Staphylococcus aureus [4] = assay: Antibacterial activity against Staphylococcus aureus ATCC 29213
Klebsiella pneumoniae = assay: Antibacterial activity against Klebsiella pneumoniae ATCC 10031
Acinetobacter baumannii [5] = assay: Antibacterial activity against Acinetobacter baumannii
Pseudomonas aeruginosa [6] = assay: Antibacterial activity against Pseudomonas aeruginosa ATCC 27853 expressing APH(3')-IIa
Enterobacter cloacae = assay: Antibacterial activity against Enterobacter cloacae expressing APH(3')-I, ANT(2'')-I, AAC(6')
Escherichia coli [7] = assay: Antibacterial activity against Escherichia coli expressing APH(3')-Ib
Staphylococcus aureus [8] = assay: Antibacterial activity against Staphylococcus aureus expressing APH(3'/5'')-III
Acinetobacter baumannii [9] = assay: Antibacterial activity against Acinetobacter baumannii expressing AAC(3)-I, APH(3')-VI, ANT(2'')-I
Staphylococcus aureus [10] = assay: Antibacterial activity against Staphylococcus aureus expressing ANT(4')-I
Pseudomonas aeruginosa [11] = assay: Antibacterial activity against Pseudomonas aeruginosa expressing ANT(4')-II
Escherichia coli [12] = assay: Antibacterial activity against Escherichia coli expressing ANT(2'')-I
Pseudomonas aeruginosa [13] = assay: Antibacterial activity against Pseudomonas aeruginosa expressing AAC(6')-II
Staphylococcus aureus [14] = assay: Antibacterial activity against Staphylococcus aureus expressing AAC(6')/APH(2'')

Row | Structure (SMILES) | MIC (Escherichia coli [1]) [µg/mL] | MIC (Escherichia coli [2]) [µg/mL] | MIC (Escherichia coli [3]) [µg/mL] | MIC (Staphylococcus aureus [4]) [µg/mL] | MIC (Klebsiella pneumoniae) [µg/mL] | MIC (Acinetobacter baumannii [5]) [µg/mL] | MIC (Pseudomonas aeruginosa [6]) [µg/mL] | MIC (Enterobacter cloacae) [µg/mL] | MIC (Escherichia coli [7]) [µg/mL] | MIC (Staphylococcus aureus [8]) [µg/mL] | MIC (Acinetobacter baumannii [9]) [µg/mL] | MIC (Staphylococcus aureus [10]) [µg/mL] | MIC (Pseudomonas aeruginosa [11]) [µg/mL] | MIC (Escherichia coli [12]) [µg/mL] | MIC (Pseudomonas aeruginosa [13]) [µg/mL] | MIC (Staphylococcus aureus [14]) [µg/mL]
1 | CN[C@@H]1[C@@H](O)[C@@H](O[C@@H]2[C@@H](O)[C@H](O[C@H]3OC(CN)=CC[C@H]3N)[C@@H](N)C[C@H]2N)OC[C@]1(C)O [SISOMICIN] | 32 (≈ 71.5 µM) | > 64 | 0.5 (≈ 1.12 µM) | 0.5 (≈ 1.12 µM) | 0.25 (≈ 0.559 µM) | 0.5 (≈ 1.12 µM) | 0.5 (≈ 1.12 µM) | > 64 | 0.25 (≈ 0.559 µM) | 0.25 (≈ 0.559 µM) | > 64 | 1 (≈ 2.23 µM) | 1 (≈ 2.23 µM) | 64 (≈ 143 µM) | 32 (≈ 71.5 µM) | > 64
2 | NC[C@H]1O[C@H](O[C@H]2[C@H](O[C@@H]3O[C@H](CO)[C@@H](O)[C@H]3O)[C@@H](O)[C@H](N)C[C@@H]2N)[C@H](N)[C@@H](O)[C@@H]1O [RIBOSTAMYCIN] | > 64 | 8 (≈ 17.6 µM) | 8 (≈ 17.6 µM) | 16 (≈ 35.2 µM) | 2 (≈ 4.4 µM) | 8 (≈ 17.6 µM) | > 64 | > 64 | > 64 | > 64 | > 64 | > 64 | > 64 | 8 (≈ 17.6 µM) | > 64 | > 64
3 | CNCC1=CC[C@H](N)[C@H](O[C@H]2[C@H](O[C@@H]3O[C@H](CO)[C@@H](O[C@@H]4O[C@H](CN)[C@H](O)[C@@H](O)[C@@H]4N)[C@H]3O)[C@@H](O)[C@H](N)C[C@@H]2N)O1 | 8 (≈ 13.5 µM) | 16 (≈ 26.9 µM) | 8 (≈ 13.5 µM) | 1 (≈ 1.68 µM) | 2 (≈ 3.36 µM) | 4 (≈ 6.73 µM) | 2 (≈ 3.36 µM) | > 64 | > 64 | 16 (≈ 26.9 µM) | > 64 | 2 (≈ 3.36 µM) | 4 (≈ 6.73 µM) | 16 (≈ 26.9 µM) | > 64 | > 64
4 | NCC1=CC[C@H](N)[C@H](O[C@H]2[C@H](O[C@@H]3O[C@H](CO)[C@@H](O[C@@H]4O[C@H](CN)[C@H](O)[C@@H](O)[C@@H]4N)[C@H]3O)[C@@H](O)[C@H](N)C[C@@H]2N)O1 (stereo in doubt) | 8 (≈ 13.8 µM) | 2 (≈ 3.44 µM) | 2 (≈ 3.44 µM) | 1 (≈ 1.72 µM) | 0.5 (≈ 0.861 µM) | 1 (≈ 1.72 µM) | 0.5 (≈ 0.861 µM) | > 64 | > 64 | 16 (≈ 27.6 µM) | > 64 | 1 (≈ 1.72 µM) | 1 (≈ 1.72 µM) | 2 (≈ 3.44 µM) | > 64 | 64 (≈ 110 µM)
5 | NCC[C@H](O)C(=O)N[C@@H]1C[C@H](N)[C@@H](O[C@H]2O[C@H](CN)[C@@H](O)[C@H](O)[C@H]2O)[C@H](O)[C@H]1O[C@H]1O[C@H](CO)[C@@H](O)[C@H](N)[C@H]1O [AMIKACIN] | 2 (≈ 3.42 µM) | > 64 | 2 (≈ 3.42 µM) | 2 (≈ 3.42 µM) | 0.5 (≈ 0.854 µM) | 2 (≈ 3.42 µM) | 2 (≈ 3.42 µM) | 64 (≈ 109 µM) | 0.5 (≈ 0.854 µM) | 8 (≈ 13.7 µM) | > 64 | 64 (≈ 109 µM) | 32 (≈ 54.6 µM) | 4 (≈ 6.83 µM) | 4 (≈ 6.83 µM) | 64 (≈ 109 µM)
6 | NCC[C@H](O)C(=O)N[C@@H]1C[C@H](N)[C@@H](O[C@H]2O[C@H](CO)[C@@H](O)[C@H](O)[C@H]2N)[C@H](O[C@@H]2O[C@H](CO)[C@@H](O[C@H]3O[C@@H](CN)[C@@H](O)[C@H](O)[C@H]3N)[C@H]2O)[C@H]1O | 4 (≈ 5.58 µM) | 4 (≈ 5.58 µM) | 2 (≈ 2.79 µM) | 2 (≈ 2.79 µM) | 1 (≈ 1.4 µM) | 2 (≈ 2.79 µM) | 8 (≈ 11.2 µM) | 8 (≈ 11.2 µM) | 2 (≈ 2.79 µM) | 32 (≈ 44.6 µM) | 64 (≈ 89.3 µM) | > 64 | 4 (≈ 5.58 µM) | 8 (≈ 11.2 µM) | 8 (≈ 11.2 µM) | 32 (≈ 44.6 µM)
7 | N[C@@H]1CC=C(CO)O[C@@H]1O[C@H]1[C@H](O[C@@H]2O[C@H](CO)[C@@H](O)[C@H]2O)[C@@H](O)[C@H](N)C[C@@H]1N | > 64 | > 64 | > 64 | > 64 | > 64 | > 64 | > 64 | > 64 | > 64 | > 64 | > 64 | > 64 | > 64 | > 64 | > 64 | > 64
8 | NCC[C@H](O)C(=O)N[C@@H]1C[C@H](N)[C@@H](O[C@H]2O[C@H](CN)[C@@H](O)[C@H](O)[C@H]2N)[C@H](O[C@@H]2O[C@H](CO)[C@@H](O)[C@H]2O)[C@H]1O | 2 (≈ 3.6 µM) | 2 (≈ 3.6 µM) | 2 (≈ 3.6 µM) | 8 (≈ 14.4 µM) | 1 (≈ 1.8 µM) | 1 (≈ 1.8 µM) | > 32 | 32 (≈ 57.6 µM) | 1 (≈ 1.8 µM) | > 32 | > 32 | > 32 | > 32 | 4 (≈ 7.2 µM) | > 32 | > 32
9 | NCC1=CC[C@@H](N)[C@@H](O[C@H]2[C@H](O[C@@H]3O[C@H](CO)[C@@H](O)[C@H]3O)[C@@H](O)[C@H](N)C[C@@H]2N)O1 | > 64 | 64 (≈ 152 µM) | 64 (≈ 152 µM) | 16 (≈ 38.1 µM) | 16 (≈ 38.1 µM) | > 64 | 16 (≈ 38.1 µM) | > 64 | 64 (≈ 152 µM) | > 64 | > 64 | 16 (≈ 38.1 µM) | 64 (≈ 152 µM) | > 64 | > 64 | > 64
10 | CN[C@@H](C)[C@@H]1CC[C@@H](N)[C@@H](O[C@H]2[C@H](O)[C@@H](O[C@H]3OC[C@](C)(O)[C@H](NC)[C@H]3O)[C@H](N)C[C@@H]2N)O1 | 16 (≈ 33.5 µM) | > 64 | 0.5 (≈ 1.05 µM) | 0.5 (≈ 1.05 µM) | 0.25 (≈ 0.523 µM) | 2 (≈ 4.19 µM) | 0.5 (≈ 1.05 µM) | 32 (≈ 67 µM) | 0.25 (≈ 0.523 µM) | 0.5 (≈ 1.05 µM) | > 64 | 0.5 (≈ 1.05 µM) | 2 (≈ 4.19 µM) | 64 (≈ 134 µM) | 32 (≈ 67 µM) | > 64
11 | NC[C@H]1O[C@@H](O[C@H]2[C@@H](O)[C@H](O[C@@H]3[C@@H](O)[C@H](N)C[C@H](N)[C@H]3O[C@@H]3OC(CO)=CC[C@@H]3N)O[C@@H]2CO)[C@@H](N)[C@H](O)[C@H]1O (stereo in doubt) | > 64 | > 64 | > 64 | 8 (≈ 13.8 µM) | > 64 | > 64 | > 64 | > 64 | > 64 | > 64 | > 64 | 16 (≈ 27.5 µM) | > 64 | > 64 | > 64 | > 64
12 | NCC1O[C@H](O[C@H]2[C@@H](O)[C@H](O[C@H]3[C@H](O)[C@@H](N)C[C@@H](N)[C@@H]3O[C@H]3O[C@H](CN)[C@@H](O)[C@H](O)[C@H]3N)O[C@@H]2CO)[C@H](N)[C@@H](O)[C@@H]1O (stereo not given in full) | 2 (≈ 3.25 µM) | 1 (≈ 1.63 µM) | 2 (≈ 3.25 µM) | 0.5 (≈ 0.813 µM) | 0.5 (≈ 0.813 µM) | 1 (≈ 1.63 µM) | 32 (≈ 52.1 µM) | > 64 | 64 (≈ 104 µM) | > 64 | > 64 | > 64 | 8 (≈ 13 µM) | 2 (≈ 3.25 µM) | 8 (≈ 13 µM) | > 64
13 | NCC[C@H](O)C(=O)N[C@@H]1C[C@H](N)[C@@H](O[C@H]2OC(CN)=CC[C@H]2N)[C@H](O[C@@H]2O[C@H](CO)[C@@H](O[C@@H]3O[C@H](CN)[C@H](O)[C@@H](O)[C@@H]3N)[C@H]2O)[C@H]1O | 1 (≈ 1.47 µM) | 1 (≈ 1.47 µM) | 0.5 (≈ 0.733 µM) | 0.5 (≈ 0.733 µM) | 0.5 (≈ 0.733 µM) | 0.5 (≈ 0.733 µM) | 0.25 (≈ 0.367 µM) | 8 (≈ 11.7 µM) | 0.25 (≈ 0.367 µM) | 1 (≈ 1.47 µM) | 1 (≈ 1.47 µM) | 1 (≈ 1.47 µM) | 0.5 (≈ 0.733 µM) | 4 (≈ 5.87 µM) | 0.5 (≈ 0.733 µM) | 2 (≈ 2.93 µM)
14 | NCC[C@H](O)C(=O)N[C@@H]1C[C@H](N)[C@@H](O[C@H]2OC(CN)=CC[C@H]2N)[C@H](O[C@@H]2O[C@H](CO)[C@@H](O)[C@H]2O)[C@H]1O | 8 (≈ 15.3 µM) | 8 (≈ 15.3 µM) | 8 (≈ 15.3 µM) | 8 (≈ 15.3 µM) | 4 (≈ 7.67 µM) | 4 (≈ 7.67 µM) | 4 (≈ 7.67 µM) | > 64 | 4 (≈ 7.67 µM) | 16 (≈ 30.7 µM) | 8 (≈ 15.3 µM) | 8 (≈ 15.3 µM) | 8 (≈ 15.3 µM) | 8 (≈ 15.3 µM) | 16 (≈ 30.7 µM) | 16 (≈ 30.7 µM)
15 | NC[C@@H]1O[C@H](O[C@H]2[C@@H](O)[C@H](O[C@@H]3[C@@H](O)[C@H](N)C[C@H](N)[C@H]3O[C@H]3O[C@H](CO)[C@@H](O)[C@H](O)[C@H]3N)O[C@@H]2CO)[C@H](N)[C@@H](O)[C@@H]1O [PAROMOMYCIN] | 8 (≈ 13 µM) | 4 (≈ 6.5 µM) | 4 (≈ 6.5 µM) | 2 (≈ 3.25 µM) | 2 (≈ 3.25 µM) | 4 (≈ 6.5 µM) | > 64 | > 64 | > 64 | > 64 | > 64 | > 64 | > 64 | 4 (≈ 6.5 µM) | > 64 | > 64
